The record followed here is patent US9662323B2, “Compounds having muscarinic receptor antagonist and beta2 adrenergic receptor agonist activity” (CHIESI FARMACEUTICI S.p.A., priority 2015, dated 2017).

One assay concerns the target T1, Human β2 adrenoceptor (Homo sapiens, UniProt P07550).
T1 construct: purchased Perkin Elmer
Description: β2 Adrenoceptor Radioligand Binding Assay. Conditions: human β2 adrenoceptor membranes, 125-I Cyanopindolol; read-out: B2 binding affinity (Ki class). The method in brief:
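Membranes were incubated 1 h at room temperature in 25 mM HEPES, 0.5% BSA, 1 mM EDTA, 0.02% ascorbic acid, pH 7.4, with 0.5% DMSO final. Bound radioligand was collected by GF/C filtration and counted by scintillation. IC50 values from competition curves were converted to Ki by Cheng–Prusoff.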

For the next assay, the target named is T2, Human M3 receptor (Homo sapiens, UniProt P20309).
T2 construct: purchased Perkin Elmer
T2 sequence (P20309 whole entry): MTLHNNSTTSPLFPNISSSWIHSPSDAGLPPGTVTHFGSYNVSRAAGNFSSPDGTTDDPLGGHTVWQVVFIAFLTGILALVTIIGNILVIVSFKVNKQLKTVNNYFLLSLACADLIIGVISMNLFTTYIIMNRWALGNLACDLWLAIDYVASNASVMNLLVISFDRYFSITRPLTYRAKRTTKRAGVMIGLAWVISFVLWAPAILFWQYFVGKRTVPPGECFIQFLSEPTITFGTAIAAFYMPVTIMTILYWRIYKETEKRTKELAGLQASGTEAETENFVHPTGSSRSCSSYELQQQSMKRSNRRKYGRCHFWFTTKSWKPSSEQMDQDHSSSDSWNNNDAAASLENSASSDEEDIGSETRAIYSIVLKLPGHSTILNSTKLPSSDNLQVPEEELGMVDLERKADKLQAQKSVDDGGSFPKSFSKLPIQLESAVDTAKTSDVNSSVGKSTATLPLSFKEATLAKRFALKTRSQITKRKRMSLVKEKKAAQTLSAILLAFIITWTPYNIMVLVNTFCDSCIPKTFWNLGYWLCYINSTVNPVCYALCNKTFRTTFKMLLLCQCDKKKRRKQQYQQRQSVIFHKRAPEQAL
As to the kind of experiment: M3 Receptor Radioligand Binding Assay. As to conditions: human M3 receptor membranes, [3H]-N-methyl scopolamine; read-out: M3 binding affinity (Ki class). In outline:
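Radioligand binding with 0.5% (v/v) final DMSO, incubated 2 h at room temperature with shaking. Membranes were collected on GF/C filters pre-treated with 0.5% polyethyleneimine, washed four times with assay buffer, and counted by scintillation.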

T1 sequence (P07550 whole entry): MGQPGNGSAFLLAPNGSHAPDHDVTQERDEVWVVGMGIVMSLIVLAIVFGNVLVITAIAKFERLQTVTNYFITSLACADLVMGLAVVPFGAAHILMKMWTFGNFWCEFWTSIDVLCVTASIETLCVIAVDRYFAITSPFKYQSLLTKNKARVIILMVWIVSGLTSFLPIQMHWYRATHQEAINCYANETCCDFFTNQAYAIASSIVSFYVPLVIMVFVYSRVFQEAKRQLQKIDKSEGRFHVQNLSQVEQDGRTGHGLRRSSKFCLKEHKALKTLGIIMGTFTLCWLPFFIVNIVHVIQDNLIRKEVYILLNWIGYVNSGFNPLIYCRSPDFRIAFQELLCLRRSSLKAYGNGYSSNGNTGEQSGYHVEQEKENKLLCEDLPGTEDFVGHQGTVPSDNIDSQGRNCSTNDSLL

As usually defined, the Ki is a measure of affinity in units of concentration, obtained from inhibition or displacement. Take `O=C(Cc1ccc(OCCCCNC[C@H](O)c2ccc(O)c3[nH]c(=O)ccc23)cc1)N1CCC(C(=O)O[C@H]2CN3CCC2CC3)(c2ccccc2)CC1` [Compound 30, (R)-Quinuclidin-3-yl 1-(2-(4-(4-(((R)-2-hydroxy-2-(8-hydroxy-2-oxo-1,2-dihydroquinolin-5-yl)ethyl)amino)butoxy)phenyl)acetyl)-4-phenylpiperidine-4-carboxylate]: the figures for the Ki on Human β2 adrenoceptor and on Human M3 receptor were under 1 nM and 1 to 10 nM, respectively.

Turning to `O=C(NCCC(=O)N1CCC(C(=O)O[C@H]2CN3CCC2CC3)(c2ccccc2)CC1)c1ccc(CNC[C@H](O)c2ccc(O)c3[nH]c(=O)ccc23)cc1` [Compound 31, (R)-Quinuclidin-3-yl 1-(3-(4-((((R)-2-hydroxy-2-(8-hydroxy-2-oxo-1,2-dihydroquinolin-5-yl)ethyl)amino)methyl)benzamido)propanoyl)-4-phenylpiperidine-4-carboxylate], the Ki is under 1 nM at Human β2 adrenoceptor and 1 to 10 nM at Human M3 receptor.

On to `O=C(CCc1ccc(OCCCCNC[C@H](O)c2ccc(O)c3[nH]c(=O)ccc23)cc1)N1CCC(C(=O)O[C@H]2CN3CCC2CC3)(c2ccccc2)CC1` [Compound 32, (R)-Quinuclidin-3-yl 1-(3-(4-(4-(((R)-2-hydroxy-2-(8-hydroxy-2-oxo-1,2-dihydroquinolin-5-yl)ethyl)amino)butoxy)phenyl)propanoyl)-4-phenylpiperidine-4-carboxylate], for which the inhibitory constant (Ki) on Human β2 adrenoceptor and on Human M3 receptor was under 1 nM throughout.

In the case of `Cc1ccc(CN(CCCNC[C@H](O)c2ccc(O)c3[nH]c(=O)ccc23)C(=O)Cc2ccc(CC(=O)N3CCC(C(=O)O[C@H]4CN5CCC4CC5)(c4ccccc4)CC3)cc2)cc1` [Compound 33, (R)-Quinuclidin-3-yl 1-(2-(4-(2-((3-(((R)-2-hydroxy-2-(8-hydroxy-2-oxo-1,2-dihydroquinolin-5-yl)ethyl)amino)propyl)(4-methylbenzyl)amino)-2-oxoethyl)phenyl)acetyl)-4-phenylpiperidine-4-carboxylate], the Ki on Human β2 adrenoceptor is 1 to 10 nM; on Human M3 receptor, under 1 nM.

On to `Cc1ccccc1CN(CCCNC[C@H](O)c1ccc(O)c2[nH]c(=O)ccc12)C(=O)Cc1ccc(CC(=O)N2CCC(C(=O)O[C@H]3CN4CCC3CC4)(c3ccccc3)CC2)cc1` [Compound 34, (R)-Quinuclidin-3-yl 1-(2-(4-(2-((3-(((R)-2-hydroxy-2-(8-hydroxy-2-oxo-1,2-dihydroquinolin-5-yl)ethyl)amino)propyl)(2-methylbenzyl)amino)-2-oxoethyl)phenyl)acetyl)-4-phenylpiperidine-4-carboxylate], for which the Ki at Human β2 adrenoceptor and on Human M3 receptor was under 1 nM in each case.

On to `Cc1cccc(CN(CCCNC[C@H](O)c2ccc(O)c3[nH]c(=O)ccc23)C(=O)Cc2ccc(CC(=O)N3CCC(C(=O)O[C@H]4CN5CCC4CC5)(c4ccccc4)CC3)cc2)c1` [Compound 35, (R)-Quinuclidin-3-yl 1-(2-(4-(2-((3-(((R)-2-hydroxy-2-(8-hydroxy-2-oxo-1,2-dihydroquinolin-5-yl)ethyl)amino)propyl)(3-methylbenzyl)amino)-2-oxoethyl)phenyl)acetyl)-4-phenylpiperidine-4-carboxylate], for which the Ki at Human β2 adrenoceptor and at Human M3 receptor was under 1 nM in each case.

In the case of `O=C(Cc1ccc(CC(=O)N(CCCNC[C@H](O)c2ccc(O)c3[nH]c(=O)ccc23)Cc2ccccc2)cc1)N1CCC(C(=O)O[C@H]2CN3CCC2CC3)(c2ccccc2)CC1` [Compound 36, (R)-Quinuclidin-3-yl 1-(2-(4-(2-(benzyl(3-(((R)-2-hydroxy-2-(8-hydroxy-2-oxo-1,2-dihydroquinolin-5-yl)ethyl)amino)propyl)amino)-2-oxoethyl)phenyl)acetyl)-4-phenylpiperidine-4-carboxylate], the inhibition constant Ki at Human β2 adrenoceptor and on Human M3 receptor was under 1 nM in each case.

For the compound `O=C(Cc1ccc(CC(=O)N(CCCNC[C@H](O)c2ccc(O)c3[nH]c(=O)ccc23)Cc2cccc(C(F)(F)F)c2)cc1)N1CCC(C(=O)O[C@H]2CN3CCC2CC3)(c2ccccc2)CC1` [Compound 37, (R)-Quinuclidin-3-yl 1-(2-(4-(2-((3-(((R)-2-hydroxy-2-(8-hydroxy-2-oxo-1,2-dihydroquinolin-5-yl)ethyl)amino)propyl)(3-(trifluoromethyl)benzyl)amino)-2-oxoethyl)phenyl)acetyl)-4-phenylpiperidine-4-carboxylate], the Ki on Human β2 adrenoceptor is 1 to 10 nM; at Human M3 receptor, under 1 nM.

With `COc1cccc(CN(CCCNC[C@H](O)c2ccc(O)c3[nH]c(=O)ccc23)C(=O)Cc2ccc(CC(=O)N3CCC(C(=O)O[C@H]4CN5CCC4CC5)(c4ccccc4)CC3)cc2)c1` [Compound 38, (R)-Quinuclidin-3-yl 1-(2-(4-(2-((3-(((R)-2-hydroxy-2-(8-hydroxy-2-oxo-1,2-dihydroquinolin-5-yl)ethyl)amino)propyl)(3-methoxybenzyl)amino)-2-oxoethyl)phenyl)acetyl)-4-phenylpiperidine-4-carboxylate], the Ki at Human β2 adrenoceptor and at Human M3 receptor was under 1 nM each time.

On to `O=C(Cc1ccc(CC(=O)N(CCCNC[C@H](O)c2ccc(O)c3[nH]c(=O)ccc23)Cc2cccc(Oc3ccc(Cl)c(Cl)c3)c2)cc1)N1CCC(C(=O)O[C@H]2CN3CCC2CC3)(c2ccccc2)CC1` [Compound 40, (R)-Quinuclidin-3-yl 1-(2-(4-(2-((3-(3,4-dichlorophenoxy)benzyl)(3-(((R)-2-hydroxy-2-(8-hydroxy-2-oxo-1,2-dihydroquinolin-5-yl)ethyl)amino)propyl)amino)-2-oxoethyl)phenyl)acetyl)-4-phenylpiperidine-4-carboxylate], for which the inhibition constant Ki on Human β2 adrenoceptor is 1 to 10 nM; at Human M3 receptor it was under 1 nM.

With `O=C(Cc1ccc(CC(=O)N(CCCNC[C@H](O)c2ccc(O)c3[nH]c(=O)ccc23)Cc2cccc(OCc3ccccc3)c2)cc1)N1CCC(C(=O)O[C@H]2CN3CCC2CC3)(c2ccccc2)CC1` [Compound 41, (R)-Quinuclidin-3-yl 1-(2-(4-(2-((3-(benzyloxy)benzyl)(3-(((R)-2-hydroxy-2-(8-hydroxy-2-oxo-1,2-dihydroquinolin-5-yl)ethyl)amino)propyl)amino)-2-oxoethyl)phenyl)acetyl)-4-phenylpiperidine-4-carboxylate], the inhibition constant (Ki) on Human β2 adrenoceptor was 1 to 10 nM; on Human M3 receptor it was under 1 nM.

For `O=C(Cc1ccc(CC(=O)N(CCCNC[C@H](O)c2ccc(O)c3[nH]c(=O)ccc23)Cc2cccc(F)c2)cc1)N1CCC(C(=O)O[C@H]2CN3CCC2CC3)(c2ccccc2)CC1` [Compound 42, (R)-Quinuclidin-3-yl 1-(2-(4-(2-((3-fluorobenzyl)(3-(((R)-2-hydroxy-2-(8-hydroxy-2-oxo-1,2-dihydroquinolin-5-yl)ethyl)amino)propyl)amino)-2-oxoethyl)phenyl)acetyl)-4-phenylpiperidine-4-carboxylate], the Ki on Human β2 adrenoceptor and on Human M3 receptor was under 1 nM in each case.

In the case of `O=C(Cc1ccc(CC(=O)N(CCCNC[C@H](O)c2ccc(O)c3[nH]c(=O)ccc23)Cc2ccccc2OCc2ccccc2)cc1)N1CCC(C(=O)O[C@H]2CN3CCC2CC3)(c2ccccc2)CC1` [Compound 43, (R)-Quinuclidin-3-yl 1-(2-(4-(2-((2-(benzyloxy)benzyl)(3-(((R)-2-hydroxy-2-(8-hydroxy-2-oxo-1,2-dihydroquinolin-5-yl)ethyl)amino)propyl)amino)-2-oxoethyl)phenyl)acetyl)-4-phenylpiperidine-4-carboxylate], the inhibition constant (Ki) was 1 to 10 nM on Human β2 adrenoceptor and under 1 nM on Human M3 receptor.

For `O=C(Cc1ccc(CC(=O)N(CCCNC[C@H](O)c2ccc(O)c3[nH]c(=O)ccc23)Cc2ccccc2N2CCOCC2)cc1)N1CCC(C(=O)O[C@H]2CN3CCC2CC3)(c2ccccc2)CC1` [Compound 44, (R)-Quinuclidin-3-yl 1-(2-(4-(2-((3-(((R)-2-hydroxy-2-(8-hydroxy-2-oxo-1,2-dihydroquinolin-5-yl)ethyl)amino)propyl)(2-morpholinobenzyl)amino)-2-oxoethyl)phenyl)acetyl)-4-phenylpiperidine-4-carboxylate], the Ki at Human β2 adrenoceptor is 1 to 10 nM; at Human M3 receptor it was under 1 nM.

Take `O=C(Cc1ccc(CC(=O)N(CCCNC[C@H](O)c2ccc(O)c3[nH]c(=O)ccc23)Cc2ccccc2F)cc1)N1CCC(C(=O)O[C@H]2CN3CCC2CC3)(c2ccccc2)CC1` [Compound 45, (R)-Quinuclidin-3-yl 1-(2-(4-(2-((2-fluorobenzyl)(3-(((R)-2-hydroxy-2-(8-hydroxy-2-oxo-1,2-dihydroquinolin-5-yl)ethyl)amino)propyl)amino)-2-oxoethyl)phenyl)acetyl)-4-phenylpiperidine-4-carboxylate]: the Ki on Human β2 adrenoceptor and on Human M3 receptor was under 1 nM in each case.

Take `O=C(Cc1ccc(CC(=O)N2CCC(C(=O)O[C@H]3CN4CCC3CC4)(c3ccccc3)CC2)cc1)NCCCNC[C@H](O)c1ccc(O)c2[nH]c(=O)ccc12` [Compound 46, (R)-Quinuclidin-3-yl 1-(2-(4-(2-((3-(((R)-2-hydroxy-2-(8-hydroxy-2-oxo-1,2-dihydroquinolin-5-yl)ethyl)amino)propyl)amino)-2-oxoethyl)phenyl)acetyl)-4-phenylpiperidine-4-carboxylate]: the inhibition constant (Ki) on Human β2 adrenoceptor and on Human M3 receptor was over 10 nM each time.

Take `CN(CCCNC[C@H](O)c1ccc(O)c2[nH]c(=O)ccc12)C(=O)Cc1ccc(CC(=O)N2CCC(C(=O)O[C@H]3CN4CCC3CC4)(c3ccccc3)CC2)cc1` [Compound 47, (R)-Quinuclidin-3-yl 1-(2-(4-(2-((3-(((R)-2-hydroxy-2-(8-hydroxy-2-oxo-1,2-dihydroquinolin-5-yl)ethyl)amino)propyl)(methyl)amino)-2-oxoethyl)phenyl)acetyl)-4-phenylpiperidine-4-carboxylate]: the Ki at Human β2 adrenoceptor and on Human M3 receptor was 1 to 10 nM each time.
